Laboratory results from paper PMC8237569 (Proceedings of the National Academy of Sciences of the …, 2021).
Values after ≈ are worked out from the molar mass of the structure shown.

Tests used:
[1] = tested on: NC1=NC2(CCCCC2)N(c2ccc(OCc3cn(CCCCOc4ccc5ccc(=O)oc5c4)nn3)cc2)C(N)=N1; test: purified protein, by the assay type; settings: pH 7.5
[2] = tested on: TA-C–resistant M. tuberculosis strains (fbiC, fgd1 mutants); type: cell-based

Row | Compound | MIC50 [2] [µM] | also measured
1 | Rv1558 (Mycobacterium tuberculosis H37Rv) |  | Km [1]: 10.01 ± 1.6 µM
2 | Nc1ccc(C(=O)O)c(O)c1 [PAS, para-aminosalicylic acid] | 0.2 (≈ 0.0306 µg/mL) | 
3 | CO[C@H]1/C=C/O[C@@]2(C)Oc3c(C)c(O)c4c(O)c(c(/C=N/N5CCN(C)CC5)c(O)c4c3C2=O)NC(=O)/C(C)=C\C=C\[C@H](C)[C@H](O)[C@@H](C)[C@@H](O)[C@@H](C)[C@H](OC(C)=O)[C@@H]1C [RIF, rifampicin] |  | MIC50, RIF [2]: 0.0016 µM (≈ 0.00132 µg/mL)
4 | NNC(=O)c1ccncc1 [INH, isoniazid] | 0.4 (≈ 0.0549 µg/mL) | 
5 | O=[N+]([O-])c1cn2c(n1)OC[C@@H](OCc1ccc(OC(F)(F)F)cc1)C2 [PTM, pretomanid] | >100 | 
